Data taken from article PMC4404410, “Crystal structure of X‐prolyl aminopeptidase fromCaenorhabditis elegans: A cytosolic enzyme with a di‐nuclear active site” (FEBS Open Bio, 2015).
Several values for one entry are separate records, joined by “and”; a condition that tells them apart may be missing. Equal entries are not always repeated.

T1: C. elegans APP-1 (X-prolyl aminopeptidase, aminopeptidase P1) (Caenorhabditis elegans, UniProt O44750)
T1 construct: full length (residues 1-616), N-terminal His-tag kept, pET19b, E. coli BL21 Star (DE3); homodimer, monomer 71977 Da by MS; two Zn2+ per monomer in crystal
T1 sequence (O44750 1-616): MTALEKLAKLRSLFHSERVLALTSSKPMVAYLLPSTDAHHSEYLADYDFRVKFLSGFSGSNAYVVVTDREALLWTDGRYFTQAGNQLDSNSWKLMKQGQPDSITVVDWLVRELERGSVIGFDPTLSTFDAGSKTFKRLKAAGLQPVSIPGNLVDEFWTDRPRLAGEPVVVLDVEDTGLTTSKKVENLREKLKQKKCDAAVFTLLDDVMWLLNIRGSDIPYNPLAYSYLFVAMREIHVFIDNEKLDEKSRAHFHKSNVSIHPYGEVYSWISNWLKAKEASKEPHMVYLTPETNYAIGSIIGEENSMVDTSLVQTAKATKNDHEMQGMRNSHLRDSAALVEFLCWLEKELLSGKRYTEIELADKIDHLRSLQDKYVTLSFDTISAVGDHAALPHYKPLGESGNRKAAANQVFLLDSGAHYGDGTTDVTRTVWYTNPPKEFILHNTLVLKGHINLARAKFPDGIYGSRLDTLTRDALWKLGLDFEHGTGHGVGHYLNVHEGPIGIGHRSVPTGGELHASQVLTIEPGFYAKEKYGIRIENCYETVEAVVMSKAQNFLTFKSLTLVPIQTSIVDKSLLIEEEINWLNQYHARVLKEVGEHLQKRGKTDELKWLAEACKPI


How the values were obtained:
[1] = molecular target: T1, C. elegans APP-1 (X-prolyl aminopeptidase, aminopeptidase P1); test: HPLC assay of bradykinin cleavage ([…] nm); format: biochemical
[2] = molecular target: the molecule itself; test: AUC; sedimentation velocity; 0.3 mg/ml APP-1 dialysed against 10 mM Tris/HCl pH 7.5, 150 mM KCl; 40,000 rpm, 20 °C; Rayleigh interference and absorbance at 275 nm

Row | inhibition at 10 µM [1] [%] | Molecule | stoichiometry N [2]
1 | 92 | C[C@H](NC(=O)[C@@H]1CCCN1C(=O)[C@@H]1CCCN1C(=O)[C@@H](O)[C@H](N)Cc1ccccc1)C(N)=O [apstatin] | 
2 |  | Caenorhabditis elegans aminopeptidase P1 (APP-1), recombinant, His-tagged (enzyme, C. elegans, UniProt O44750 1-616, looked up, Aminopeptidase P1 (APP-1, X-prolyl aminopeptidase), C. elegans, cytosolic; cDNA amplified with primers from the start codon to the stop codon; residues 1-616 (N-terminal domain 1-163, middle domain 164-318, C-terminal domain 319-616); N-terminal His tag and linker come from pET19b and were not removed; Mass spectrometry fits the His-tagged protein after removal of the start methionine (calculated …)) MTALEKLAKLRSLFHSERVLALTSSKPMVAYLLPSTDAHHSEYLADYDFRVKFLSGFSGSNAYVVVTDREALLWTDGRYFTQAGNQLDSNSWKLMKQGQPDSITVVDWLVRELERGSVIGFDPTLSTFDAGSKTFKRLKAAGLQPVSIPGNLVDEFWTDRPRLAGEPVVVLDVEDTGLTTSKKVENLREKLKQKKCDAAVFTLLDDVMWLLNIRGSDIPYNPLAYSYLFVAMREIHVFIDNEKLDEKSRAHFHKSNVSIHPYGEVYSWISNWLKAKEASKEPHMVYLTPETNYAIGSIIGEENSMVDTSLVQTAKATKNDHEMQGMRNSHLRDSAALVEFLCWLEKELLSGKRYTEIELADKIDHLRSLQDKYVTLSFDTISAVGDHAALPHYKPLGESGNRKAAANQVFLLDSGAHYGDGTTDVTRTVWYTNPPKEFILHNTLVLKGHINLARAKFPDGIYGSRLDTLTRDALWKLGLDFEHGTGHGVGHYLNVHEGPIGIGHRSVPTGGELHASQVLTIEPGFYAKEKYGIRIENCYETVEAVVMSKAQNFLTFKSLTLVPIQTSIVDKSLLIEEEINWLNQYHARVLKEVGEHLQKRGKTDELKWLAEACKPI | 2 and 4
